Assay results reported in patent US20140243422A1, “METHODS OF TREATING BEHAVIORAL AND PSYCHIATRIC DISORDERS” (ELAN PHARMACEUTICALS, INC., priority 2011, published 2014).

System: patients with mild to moderate AD (MMSE 16-26)
Experiment: Phase 2 trial: Neuropsychiatric Inventory (NPI-12) scores, cluster scores and emergence of new NPS
Format: in vivo, human
Text: Several scales have been used for the assessment of BPSD. These include scales that have been specifically designed for studying NPS in patients with dementia, such as the “Behavioral Pathology in AD Rating Scale” (BEHAVE-AD, Reisberg et al. BEHAVE-AD: A clinical rating scale for the assessment of pharmacologically remediable behavioral symptomatology in Alzheimer's disease. In: Altman H J, editor. Alzheimer's Disease: Problems, prospects, and perspectives. Plenum; New York: 1987. pp. 1-161996), CERAD behavior rating scale for dementia (BRSD, Tariot 1996, International Psychogeriatrics, 8(Suppl. 3):317-320), and the Neuropsychiatric Inventory (NPI, Cummings et al. 1994, Neurology. 1994; 44:2308-14). The NPI which was designed to evaluate the broad range of behavioral symptoms that may develop in dementia patients, is a well validated instrument and has been widely used in BPSD studies and in AD treatment trials. The original version assessed 10 symptoms or items, including: delusions, hallucinations, agitation/aggression, depression/dysphoria, anxiety, apathy, irritability, euphoria/elation, disinhibition, and aberrant motor behavior; and was subsequently updated to include appetite changes and nighttime behaviors (sleep disturbances). The NPI is administered by a trained individual as a structured interview with the patient's caregiver. Each item is assessed by a scripted screening question, and the frequency and severity of each item is scored from 0-4 (0: absent, 1: occasional or less than once per week to 4 occurs at least daily), and from 1-3 (1: mild or produces little distress in patient; 2: moderate or more disturbing to patient but can be re-directed by caregiver; and 3: severe or very disturbing to patient and difficult to re-direct). The total item-score is then derived from frequency multiplied by the severity score; and the total NPI score (NPI-T) is derived from addition of all item scores, with the range of scores being from 0 (no NPS at all) to 144 (all 12 NPS are present at maximum severity at daily basis). In the majority of the drug trials in Mild/Moderate AD, the mean total NPI scores are ˜10-12 at baseline. The Phase 2 study described in the example below utilized the NPI-12 item assessment; and the mean total NPI scores were between 8 and 10 at baseline. This baseline severity is slightly lower than the range reported in many Mild to Moderate AD trials reported in the literature.
In a Phase 2, parallel arm, dose-ranging, placebo-controlled, double-blind, multicenter trial in patients with mild to moderate AD (MMSE 16-26), scyllo-inositol was administered to study subjects in immediate release tablets twice daily at the dosage level set for each study arm or identical-appearing placebo tablets were administered in the control arm. […] The study included neuropsychological assessments using the NPI-12 item scale, as well as assessments of scyllo-Inositol (SI) and myo-inositol (MI) brain levels using magnetic resonance spectroscopy (MRS).
The present study was a dose ranging study in Mild and Moderate AD patients (defined as having MMSE scores of 16-26 inclusive), and included 3 doses of scyllo-insoitol given bid (250 mg, 1000 mg, and 2000 mg) and placebo. The study was of 78 weeks duration and enrolled a total of 353 patients, and 351 received study drug (safety population). Due to safety findings in the 2 highest dose groups, these 2 groups were discontinued and the study's final efficacy analysis was based only on the 250 mg and placebo groups. […] In the overall study population, total randomized to all 4 dose groups=353, total that received study drug=351 (safety population, at any dose). For placebo and 250 mg group, the overall m-ITT (modified intent-to-treat)=166, overall PPS (per protocol set)=96.
A potentially disease-modifying drug, by altering regional neuronal dysfunction, may prevent or delay the emergence of abnormal behaviors as quantified by the NPI outcomes. […]

[1] = 250 mg bid vs placebo, Mild AD, m-ITT

Compound: O[C@H]1[C@H](O)[C@@H](O)[C@H](O)[C@@H](O)[C@@H]1O [scyllo-inositol]
- Score Difference (Summary Statistics), Affective Syndrome (6 symptoms) (250 mg bid vs placebo, Mild AD MMSE 22-26, m-ITT): +3.47
- Score Difference (MMRM), Affective Syndrome (Depression, Anxiety, Agitation, Nighttime Behavior, Appetite Changes, Apathy) (250 mg bid vs placebo, Mild AD MMSE 22-26, m-ITT, factor-analysis cluster): +1.36
- Score Difference (MMRM), Apathy [1]: −0.35
- Score Difference (MMRM), Behavioral cluster: Aberrant Motor/Nighttime Behaviors [1]: +0.05
- Score Difference (MMRM), Frontal cluster: Elation and Disinhibition [1]: +0.33
- Score Difference (MMRM), Psychotic cluster: Delusions and Hallucinations [1]: −0.29
- Score Difference (MMRM), Affective: Depression and Anxiety (250 mg bid vs placebo, Moderate AD MMSE 16-21, m-ITT): +0.94
- improvement of Affective Syndrome score change compared to placebo group, by MMRM (250 mg bid, Mild AD MMSE 22-26): 35%
- improvement of Affective Syndrome score change compared to placebo group, by summary statistics (250 mg bid, Mild AD MMSE 22-26): 91%
- NPI total score benefit compared to placebo (250 mg bid, Mild MMSE 22-26, m-ITT, 78 weeks): 44%
- NPI total score numerical difference from placebo (250 mg bid, Mild MMSE 22-26, m-ITT, 78 weeks, not statistically significant): ~2 points
- proportion of patients who developed at least 2 new symptoms, lower versus placebo (250 mg bid, Mild m-ITT MMSE 22-26, over 78 weeks, p<0.05): 21.5%
- NPI total score improvement versus placebo (250 mg bid, Moderate MMSE 16-21, PP analysis): ~50%
- NPI total score, better than placebo (250 mg bid, Moderate MMSE 16-21, PP analysis, 78 weeks, not statistically significant): ~4 points
- NPI total score versus placebo (250 mg bid, Moderate MMSE 16-21, m-ITT analysis): did not show significant differences from placebo
- proportion of patients who developed at least 2 new symptoms, lower versus placebo (250 mg bid, Moderate m-ITT MMSE 16-21, over 78 weeks, p=0.33): 12.4%
- proportion of patients who developed at least 4 new symptoms, lower versus placebo (250 mg bid, Moderate m-ITT MMSE 16-21, over 78 weeks, p=0.34): 12.1%
- increase in prevalence of irritability, baseline to end of study (250 mg group, Mild, week 78): 10%
- prevalence of apathy, anxiety, agitation, appetite and sleep change, baseline to end of study (250 mg group, Mild, week 78): remained stable
- emergence of depression, anxiety, appetite change, agitation and apathy at any time during the study (250 mg, Mild MMSE 22-26): decreases the emergence
- emergence of NPS at any time during the study (250 mg, Moderate MMSE 16-21): decreased emergence of most NPS
- emergence of irritability (250 mg, Moderate MMSE 16-21): more prevalent with treatment
- Score Difference (MMRM), Affective: Depression and Anxiety (Moderate AD, PPS): +1.07
- Score Difference (MMRM), Apathy (Moderate AD, PPS): +0.14
- Score Difference (MMRM), Behavioral: Aberrant Motor, Nighttime Behaviors (Moderate AD, PPS): +1.42
- Score Difference (MMRM), Frontal: Elation and Disinhibition (Moderate AD, PPS): +0.68
- Score Difference (MMRM), Psychotic: Delusions and Hallucinations (Moderate AD, PPS): +1.32
- Score Difference (summary statistics), Affective: Depression and Anxiety (Moderate AD, PPS): +0.06
- Score Difference (summary statistics), Apathy (Moderate AD, PPS): +0.68
- Score Difference (summary statistics), Behavioral: Aberrant Motor, Nighttime Behaviors (Moderate AD, PPS): +1.96
- Score Difference (summary statistics), Frontal: Elation and Disinhibition (Moderate AD, PPS): +0.53
- Score Difference (summary statistics), Psychotic: Delusions and Hallucinations (Moderate AD, PPS): +0.71
- Score Difference (MMRM), Apathy (Moderate AD, m-ITT): +0.97
- Score Difference (MMRM), Behavioral: Aberrant Motor, Nighttime Behaviors (Moderate AD, m-ITT): +0.11
- Score Difference (MMRM), Frontal: Elation and Disinhibition (Moderate AD, m-ITT): +0.56
- Score Difference (MMRM), Psychotic: Delusions and Hallucinations (Moderate AD, m-ITT): −0.52
- Score Difference (summary statistics), Affective: Depression and Anxiety (Moderate AD, m-ITT): −0.15
- Score Difference (summary statistics), Apathy (Moderate AD, m-ITT): +1.09
- Score Difference (summary statistics), Behavioral: Aberrant Motor, Nighttime Behaviors (Moderate AD, m-ITT): +1.76
- Score Difference (summary statistics), Frontal: Elation and Disinhibition (Moderate AD, m-ITT): +0.48
- Score Difference (summary statistics), Psychotic: Delusions and Hallucinations (Moderate AD, m-ITT): +0.34
- emergence of depression and/or anxiety by plasma AUC quartile (plasma AUC corresponding to the 250 mg bid dose (second quartile)): significant decrease
